Laboratory results reported in PMC7614775 (Nature chemical biology, 2022).
“Also recorded” adds a separate entry of the source.

Assays:
JAK1_C817 [1] = target: T1, JAK1_C817 (Homo sapiens, UniProt P23458); test: Targeted MS-ABPP target engagement (TE50) in human cell lysates; assay type: binding
TYK2_C838 [2] = target: T2, TYK2_C838 (Homo sapiens, UniProt P29597); test: Untargeted cysteine MS-ABPP, human PBMCs treated in situ; assay type: binding
HMOX2_C282 = target: T3, HMOX2_C282 (Homo sapiens, UniProt P30519); test: as above; assay type: binding
T3 sequence (P30519 1-316): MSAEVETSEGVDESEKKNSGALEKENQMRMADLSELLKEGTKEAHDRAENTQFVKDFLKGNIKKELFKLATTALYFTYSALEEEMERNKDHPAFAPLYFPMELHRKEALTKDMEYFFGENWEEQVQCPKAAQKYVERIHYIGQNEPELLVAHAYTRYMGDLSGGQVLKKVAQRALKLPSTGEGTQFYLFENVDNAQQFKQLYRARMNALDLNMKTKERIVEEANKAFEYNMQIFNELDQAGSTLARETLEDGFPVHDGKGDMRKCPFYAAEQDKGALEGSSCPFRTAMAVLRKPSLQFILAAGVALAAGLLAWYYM

TOR4A_C21 [3] = target: T4, TOR4A_C21 (Homo sapiens, UniProt Q9NXH8); test: as above; assay type: binding
T4 sequence (Q9NXH8 whole entry): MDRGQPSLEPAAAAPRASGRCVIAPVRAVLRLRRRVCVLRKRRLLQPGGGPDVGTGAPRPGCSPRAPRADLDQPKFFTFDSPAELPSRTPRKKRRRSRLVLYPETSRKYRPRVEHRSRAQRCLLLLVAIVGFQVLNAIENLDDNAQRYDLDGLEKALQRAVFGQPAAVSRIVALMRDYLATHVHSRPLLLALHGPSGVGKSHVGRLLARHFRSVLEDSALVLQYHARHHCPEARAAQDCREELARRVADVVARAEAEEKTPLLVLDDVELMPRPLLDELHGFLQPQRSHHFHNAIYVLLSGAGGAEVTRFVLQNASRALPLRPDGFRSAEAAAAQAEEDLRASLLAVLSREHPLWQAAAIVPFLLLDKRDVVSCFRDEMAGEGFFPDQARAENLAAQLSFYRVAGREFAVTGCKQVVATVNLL

JAK1_C817 [4] = target: T1, JAK1_C817; test: Untargeted cysteine MS-ABPP, human PBMC lysates treated in vitro; assay type: binding; conditions: PBMC lysate in vitro, 1 h
TOR4A_C21 [5] = target: T4, TOR4A_C21; test: as above; assay type: binding; conditions: PBMC lysate in vitro, 1 h
TYK2_C838 [6] = target: T2, TYK2_C838; test: as above; assay type: binding; conditions: PBMC lysate in vitro, 1 h
C816 of mouse JAK1 = C816 of mouse JAK1 (Mus musculus, UniProt P52332); test: Cysteine MS-ABPP in mouse splenocyte lysates; assay type: binding; conditions: 0.01 µM, 1 h
C816 of mouse JAK1, sequence (P52332 whole entry): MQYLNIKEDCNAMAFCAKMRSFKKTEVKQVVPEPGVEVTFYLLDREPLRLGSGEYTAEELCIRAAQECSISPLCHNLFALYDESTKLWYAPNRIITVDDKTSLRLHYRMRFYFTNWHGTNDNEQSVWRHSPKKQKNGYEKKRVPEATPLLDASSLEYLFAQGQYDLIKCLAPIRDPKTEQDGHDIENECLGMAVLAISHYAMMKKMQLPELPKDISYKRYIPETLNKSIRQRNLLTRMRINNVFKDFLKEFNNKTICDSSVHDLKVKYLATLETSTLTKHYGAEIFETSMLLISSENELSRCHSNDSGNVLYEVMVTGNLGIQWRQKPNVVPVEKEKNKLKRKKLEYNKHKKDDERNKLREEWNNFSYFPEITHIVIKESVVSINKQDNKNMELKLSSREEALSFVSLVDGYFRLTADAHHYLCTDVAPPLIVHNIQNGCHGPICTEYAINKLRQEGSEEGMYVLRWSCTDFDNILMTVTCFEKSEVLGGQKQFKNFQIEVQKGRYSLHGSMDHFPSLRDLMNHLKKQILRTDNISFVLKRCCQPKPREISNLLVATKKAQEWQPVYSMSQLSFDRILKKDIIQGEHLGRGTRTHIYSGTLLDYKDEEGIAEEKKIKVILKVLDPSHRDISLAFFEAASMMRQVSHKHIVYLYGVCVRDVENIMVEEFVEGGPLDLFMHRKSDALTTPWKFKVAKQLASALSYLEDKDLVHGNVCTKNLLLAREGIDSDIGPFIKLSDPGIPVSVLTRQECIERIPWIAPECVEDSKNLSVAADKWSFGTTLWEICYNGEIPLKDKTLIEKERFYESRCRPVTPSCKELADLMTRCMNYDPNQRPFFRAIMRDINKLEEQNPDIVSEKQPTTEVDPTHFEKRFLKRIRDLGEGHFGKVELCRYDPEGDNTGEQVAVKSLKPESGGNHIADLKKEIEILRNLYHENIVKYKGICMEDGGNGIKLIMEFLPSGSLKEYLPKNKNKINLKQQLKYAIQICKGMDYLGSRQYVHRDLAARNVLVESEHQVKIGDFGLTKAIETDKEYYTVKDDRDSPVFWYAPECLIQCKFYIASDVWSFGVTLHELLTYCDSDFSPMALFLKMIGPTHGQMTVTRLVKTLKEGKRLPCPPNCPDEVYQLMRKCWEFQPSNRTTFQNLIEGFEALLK

[7] = system: IFNα-stimulated STAT1 phosphorylation; test: Phospho-STAT western blot in 22Rv1 cells expressing JAK1 variants; assay type: cell-based, human
[8] = system: IL-6-stimulated STAT3 phosphorylation; test: as above; assay type: cell-based, human
[9] = target: JAK1 phosphorylation (pJAK1; Y1034/Y1035) (Homo sapiens, UniProt P23458); test: JAK1 phosphorylation western blot in 22Rv1 cells expressing JAK1 variants; assay type: cell-based; conditions: WT- and C810A-JAK1
JAK1 phosphorylation (pJAK1; Y1034/Y1035) (Homo sapiens, UniProt P23458), sequence (P23458 whole entry): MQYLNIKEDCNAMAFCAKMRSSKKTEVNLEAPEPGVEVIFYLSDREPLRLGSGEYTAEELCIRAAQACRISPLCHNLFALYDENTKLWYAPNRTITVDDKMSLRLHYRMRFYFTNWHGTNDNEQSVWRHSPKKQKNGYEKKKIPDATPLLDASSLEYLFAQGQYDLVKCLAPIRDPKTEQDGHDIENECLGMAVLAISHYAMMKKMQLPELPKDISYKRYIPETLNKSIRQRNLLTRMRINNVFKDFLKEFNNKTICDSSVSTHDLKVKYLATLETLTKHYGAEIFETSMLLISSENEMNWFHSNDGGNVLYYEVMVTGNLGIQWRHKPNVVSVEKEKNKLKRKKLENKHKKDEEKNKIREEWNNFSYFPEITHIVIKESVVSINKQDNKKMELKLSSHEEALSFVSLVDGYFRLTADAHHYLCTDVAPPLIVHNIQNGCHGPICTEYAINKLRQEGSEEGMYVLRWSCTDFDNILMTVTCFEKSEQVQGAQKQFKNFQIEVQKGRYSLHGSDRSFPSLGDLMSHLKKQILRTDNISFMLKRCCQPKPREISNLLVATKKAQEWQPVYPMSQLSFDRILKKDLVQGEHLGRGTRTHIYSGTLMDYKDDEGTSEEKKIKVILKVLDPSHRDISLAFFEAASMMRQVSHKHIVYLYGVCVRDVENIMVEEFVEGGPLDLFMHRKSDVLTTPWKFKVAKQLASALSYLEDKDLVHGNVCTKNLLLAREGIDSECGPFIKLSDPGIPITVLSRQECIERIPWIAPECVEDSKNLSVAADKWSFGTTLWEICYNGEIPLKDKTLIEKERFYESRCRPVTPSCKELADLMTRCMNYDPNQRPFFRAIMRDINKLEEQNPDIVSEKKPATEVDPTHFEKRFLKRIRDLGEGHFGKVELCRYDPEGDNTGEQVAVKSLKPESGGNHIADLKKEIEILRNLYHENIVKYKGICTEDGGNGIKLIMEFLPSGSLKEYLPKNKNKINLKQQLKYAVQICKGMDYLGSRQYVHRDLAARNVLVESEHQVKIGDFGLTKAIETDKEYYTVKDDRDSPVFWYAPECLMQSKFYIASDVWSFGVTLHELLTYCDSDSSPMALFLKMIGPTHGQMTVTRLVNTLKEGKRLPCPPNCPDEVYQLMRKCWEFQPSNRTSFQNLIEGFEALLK

[10] = target: JAK1 phosphorylation (pJAK1; Y1034/Y1035) (Homo sapiens, UniProt P23458, C817A); test: as above; assay type: cell-based; conditions: C817A-JAK1; 2 µM, 2 h
JAK1 phosphorylation (pJAK1; Y1034/Y1035) (Homo sapiens, UniProt P23458, C817A), sequence (P23458 whole entry C817A): as the sequence (P23458 whole entry) above, with C817A counted along it

[11] = system: IFNα-stimulated STAT1 phosphorylation (TYK2-dependent); test: Phospho-STAT western blot in 22Rv1 cells expressing TYK2 variants; assay type: cell-based, human; conditions: WT-TYK2 expressing 22Rv1 cells; 2 h
[12] = system: IFNα-stimulated STAT1 phosphorylation; test: Phospho-STAT western blot in human PBMCs; assay type: cell-based; conditions: 0.1 µM
[13] = system: IL-6-stimulated STAT3 phosphorylation; test: Phospho-STAT western blot in human PBMCs; assay type: cell-based; conditions: 0.1 µM
[14] = system: GM-CSF stimulated STAT5 phosphorylation (JAK2-dependent); test: Phospho-STAT western blot in human PBMCs; assay type: cell-based; conditions: compound 2 h, GM-CSF 15 min
[15] = system: IFNα-dependent STAT1 phosphorylation; test: Phospho-STAT western blot in mouse splenocytes; assay type: cell-based; conditions: 0.01–0.1 µM
[16] = system: IL-2-dependent STAT5 phosphorylation; test: Phospho-STAT western blot in mouse splenocytes; assay type: cell-based; conditions: 0.01–0.1 µM
GM-CSF-STAT5 signaling = test: Phospho-STAT western blot in mouse splenocytes; assay type: cell-based
IL-12-STAT4 signaling = test: Phospho-STAT western blot in mouse splenocytes; assay type: cell-based
[17] = system: IL-6-stimulated STAT3 phosphorylation; test: Phospho-STAT western blot in mouse splenocytes; assay type: cell-based
[18] = target: recombinant purified JAK1 (aa 438 – 1154) (Homo sapiens, UniProt P23458); test: In vitro kinase (peptide substrate, ADP-Glo) assay; assay type: biochemical
recombinant purified JAK1 (aa 438 – 1154), sequence (P23458 438-1154): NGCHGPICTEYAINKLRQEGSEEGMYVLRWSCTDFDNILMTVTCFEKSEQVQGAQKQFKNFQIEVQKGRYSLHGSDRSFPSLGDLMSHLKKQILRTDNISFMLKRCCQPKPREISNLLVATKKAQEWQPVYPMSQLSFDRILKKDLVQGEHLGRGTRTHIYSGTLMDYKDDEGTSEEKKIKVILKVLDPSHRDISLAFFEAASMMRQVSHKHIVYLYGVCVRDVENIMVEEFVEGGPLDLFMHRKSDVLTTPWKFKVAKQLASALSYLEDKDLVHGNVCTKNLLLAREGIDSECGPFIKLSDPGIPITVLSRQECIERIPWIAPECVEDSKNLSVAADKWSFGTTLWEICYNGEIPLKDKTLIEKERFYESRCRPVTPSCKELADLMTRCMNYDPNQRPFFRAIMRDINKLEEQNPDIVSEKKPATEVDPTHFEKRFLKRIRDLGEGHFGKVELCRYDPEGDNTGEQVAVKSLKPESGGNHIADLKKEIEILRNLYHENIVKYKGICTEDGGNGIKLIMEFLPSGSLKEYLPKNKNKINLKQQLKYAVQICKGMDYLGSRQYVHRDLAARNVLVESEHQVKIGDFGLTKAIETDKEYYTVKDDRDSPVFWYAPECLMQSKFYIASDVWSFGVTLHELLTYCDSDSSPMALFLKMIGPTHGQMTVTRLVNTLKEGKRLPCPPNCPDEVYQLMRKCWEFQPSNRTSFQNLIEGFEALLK

[19] = system: IFNγ-stimulated STAT1 phosphorylation; test: Phospho-STAT western blot in 22Rv1 cells expressing JAK1 variants; assay type: cell-based, human
[20] = target: recombinant JAK1 (WT, C810A, C817A) (Homo sapiens, UniProt P23458); test: Gel-based ABPP in 22Rv1 cells; assay type: binding; conditions: pre-treatment 0.01–1 μM, 2 h, in situ
recombinant JAK1 (WT, C810A, C817A), sequence (P23458 whole entry C810A/C817A): as the sequence (P23458 whole entry) above, with C810A, C817A counted along it

[21] = target: recombinant TYK2 (WT, C838A) (Homo sapiens, UniProt P29597); test: Gel-based ABPP in 22Rv1 cells; assay type: binding; conditions: pre-treatment 0.01–1 μM, 2 h, in situ
recombinant TYK2 (WT, C838A), sequence (P29597 whole entry C838A): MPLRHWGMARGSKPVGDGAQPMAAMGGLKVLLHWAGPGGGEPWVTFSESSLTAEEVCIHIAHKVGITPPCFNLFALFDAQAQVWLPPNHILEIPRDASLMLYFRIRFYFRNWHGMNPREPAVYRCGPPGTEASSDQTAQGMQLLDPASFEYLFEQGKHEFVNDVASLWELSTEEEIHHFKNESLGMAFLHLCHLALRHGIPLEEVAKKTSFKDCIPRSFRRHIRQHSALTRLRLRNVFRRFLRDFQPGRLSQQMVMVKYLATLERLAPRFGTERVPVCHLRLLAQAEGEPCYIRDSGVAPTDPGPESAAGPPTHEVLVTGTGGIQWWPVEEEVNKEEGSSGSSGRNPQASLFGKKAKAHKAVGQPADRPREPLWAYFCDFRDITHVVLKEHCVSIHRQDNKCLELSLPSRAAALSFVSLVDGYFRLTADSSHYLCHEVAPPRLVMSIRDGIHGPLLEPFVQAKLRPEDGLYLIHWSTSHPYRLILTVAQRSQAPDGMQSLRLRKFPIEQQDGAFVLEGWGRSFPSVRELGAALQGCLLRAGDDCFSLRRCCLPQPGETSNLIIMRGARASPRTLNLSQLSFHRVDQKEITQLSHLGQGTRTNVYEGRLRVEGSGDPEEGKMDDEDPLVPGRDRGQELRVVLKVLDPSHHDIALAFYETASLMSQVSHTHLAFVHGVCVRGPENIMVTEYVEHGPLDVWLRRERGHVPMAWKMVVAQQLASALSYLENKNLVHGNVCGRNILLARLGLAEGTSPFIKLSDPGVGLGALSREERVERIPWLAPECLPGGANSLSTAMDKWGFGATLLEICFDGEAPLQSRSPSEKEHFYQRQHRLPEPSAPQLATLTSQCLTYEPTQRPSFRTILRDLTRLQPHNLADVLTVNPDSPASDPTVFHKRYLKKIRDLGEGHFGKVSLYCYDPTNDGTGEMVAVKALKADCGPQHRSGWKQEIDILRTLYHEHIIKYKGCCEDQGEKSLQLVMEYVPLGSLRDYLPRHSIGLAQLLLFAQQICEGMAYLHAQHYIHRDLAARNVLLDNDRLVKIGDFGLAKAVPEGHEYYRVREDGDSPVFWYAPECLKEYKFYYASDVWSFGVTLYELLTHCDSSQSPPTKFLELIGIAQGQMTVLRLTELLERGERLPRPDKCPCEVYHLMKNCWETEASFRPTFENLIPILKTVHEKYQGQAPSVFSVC

[22] = C817A-JAK1-expressing 22Rv1 cells, up to 2 µM
[23] = WT- or C810A-JAK1-expressing 22Rv1 cells, 2 µM, 2 h
[24] = WT- or C810A-JAK1-expressing 22Rv1 cells, at ~0.2 µM

T2 sequence (P29597 whole entry): as the sequence (P29597 whole entry C838A) above, with A838C counted along it
T1 sequence (P23458 whole entry): as the sequence (P23458 whole entry) above

change of TE50 with preincubation time (JAK1_C817 [1]; Jurkat T-cell lysate, 10, 30 and 60 minutes): time-dependent decreases | potency compared with the corresponding diastereomers (5c and 5d) (JAK1_C817 [1]; TE50 and pSTAT pIC50): substantially more potent | %Engagement (TYK2_C838 [2]; 0.01 µM): 9% | Engagement Ratio (DMSO/VVD-118313) (TYK2_C838 [2]; 0.01 µM): 1.1 | Engagement Ratio (DMSO/VVD-118313) (TYK2_C838 [2]; 0.1 µM): 5.4 | %Engagement (TYK2_C838 [2]; 1 µM): 92% | Engagement Ratio (DMSO/VVD-118313) (TYK2_C838 [2]; 1 µM): 12.5 | %Engagement (TYK2_C838 [2]; 10 µM): 95% | Engagement Ratio (DMSO/VVD-118313) (TYK2_C838 [2]; 10 µM): 18.2 | Engagement Ratio (DMSO/VVD-118313) (HMOX2_C282; 0.01 µM): 1.0 | %Engagement (HMOX2_C282; 0.1 µM): 27% | Engagement Ratio (DMSO/VVD-118313) (HMOX2_C282; 0.1 µM): 1.4 | %Engagement (HMOX2_C282; 1 µM): engaged | Engagement Ratio (DMSO/VVD-118313) (HMOX2_C282; 1 µM): 12.5 | %Engagement (HMOX2_C282; 10 µM): 98% | Engagement Ratio (DMSO/VVD-118313) (HMOX2_C282; 10 µM): 20.0 | Engagement Ratio (DMSO/VVD-118313) (TOR4A_C21 [3]; 0.01 µM): 0.9 | Engagement Ratio (DMSO/VVD-118313) (TOR4A_C21 [3]; 0.1 µM): 1.0 | %Engagement (TOR4A_C21 [3]; 1 µM): 65% | Engagement Ratio (DMSO/VVD-118313) (TOR4A_C21 [3]; 1 µM): 2.9 | %Engagement (TOR4A_C21 [3]; 10 µM): 92% | Engagement Ratio (DMSO/VVD-118313) (TOR4A_C21 [3]; 10 µM): 11.8 | %Engagement (JAK1_C817 [4]; 0.01 µM): 81% | Engagement Ratio (DMSO/VVD-118313) (JAK1_C817 [4]; 0.01 µM): 5.1 | %Engagement (JAK1_C817 [4]; 0.1 µM): 96% | Engagement Ratio (DMSO/VVD-118313) (JAK1_C817 [4]; 0.1 µM): 20.0 | %Engagement (JAK1_C817 [4]; 1 µM): 97% | Engagement Ratio (DMSO/VVD-118313) (JAK1_C817 [4]; 1 µM): 20.0 | %Engagement (JAK1_C817 [4]; 10 µM): 98% | Engagement Ratio (DMSO/VVD-118313) (JAK1_C817 [4]; 10 µM): 20.0 | %Engagement (TOR4A_C21 [5]; 0.01 µM): 9% | Engagement Ratio (DMSO/VVD-118313) (TOR4A_C21 [5]; 0.01 µM): 1.1 | %Engagement (TOR4A_C21 [5]; 0.1 µM): 49% | Engagement Ratio (DMSO/VVD-118313) (TOR4A_C21 [5]; 0.1 µM): 1.9 | %Engagement (TOR4A_C21 [5]; 1 µM): 90% | Engagement Ratio (DMSO/VVD-118313) (TOR4A_C21 [5]; 1 µM): 10.0 | %Engagement (TOR4A_C21 [5]; 10 µM): 97% | Engagement Ratio (DMSO/VVD-118313) (TOR4A_C21 [5]; 10 µM): 20.0 | Engagement Ratio (DMSO/VVD-118313) (TYK2_C838 [6]; 0.01 µM): 0.9 | %Engagement (TYK2_C838 [6]; 0.1 µM): 32% | Engagement Ratio (DMSO/VVD-118313) (TYK2_C838 [6]; 0.1 µM): 1.5 | %Engagement (TYK2_C838 [6]; 1 µM): 83% | Engagement Ratio (DMSO/VVD-118313) (TYK2_C838 [6]; 1 µM): 5.9 | %Engagement (TYK2_C838 [6]; 10 µM): 96% | Engagement Ratio (DMSO/VVD-118313) (TYK2_C838 [6]; 10 µM): 20.0 | engagement of mouse JAK1 C816 (% inhibition) (C816 of mouse JAK1): > 90% | blockade of JAK1 phosphorylation (maximal activity) ([9]; 0.05 µM): > 90% | effect on constitutive JAK1 phosphorylation ([9]; 2 µM, 2 h): completely blocked | effect on constitutive JAK1 phosphorylation [10]: did not affect | effect on catalytic activity of recombinant purified JAK1 ([18]; peptide substrate assay): did not inhibit | IC50 ([18]; read-out: IC50, JAK1 substrate assay, 30 min preincubation, IRS-1 peptide, ATP 50 µM, 1 h): > 50 µM | competition of probe 6 reactivity with WT-TYK2 [21]: blocked probe 6 reactivity
Structure (SMILES): CS(=O)(=O)N1CC[C@H](C#CC(=O)N2CCC[C@@H](c3ccc(Cl)c(Cl)c3)C2)C1 [VVD-118313]
inhibition of IFNα-STAT1 phosphorylation [7, 22]: < 10% | effect on IFNα-stimulated pSTAT1 [7, 23]: blocked | maximal inhibition of IFNα-STAT1 phosphorylation [7, 24]: > 80% | inhibition of IL-6-STAT3 phosphorylation [8, 22]: < 10% | effect on IL-6-stimulated pSTAT3 [8, 23]: blocked | maximal inhibition of IL-6-STAT3 phosphorylation [8, 24]: > 80% | effect on IFNα-induced STAT1 phosphorylation [11]: blocked | inhibition of IFNα-stimulated STAT1 phosphorylation [12]: > 85% | inhibition of IL-6-stimulated STAT3 phosphorylation [13]: > 85% | effect on GM-CSF stimulated STAT5 phosphorylation [14]: no effect; also recorded: modest inhibitory effects | effect on IFNα-dependent STAT1 phosphorylation [15]: inhibited | effect on IL-2-dependent STAT5 phosphorylation [16]: inhibited | effect on GM-CSF-STAT5 signaling (GM-CSF-STAT5 signaling): sparing | effect on IL-12-STAT4 signaling (IL-12-STAT4 signaling): sparing | effect on IL-6-dependent STAT3 phosphorylation ([17]; Tyk2−/− splenocytes): fully blocked | effect on IL-6-stimulated STAT3 phosphorylation ([17]; WT mouse splenocytes): did not inhibit | blockade of IFNγ-stimulated STAT1 phosphorylation ([19]; K908E-JAK1-expressing 22Rv1 cells): ~ 40% | blockade of IFNγ-stimulated STAT1 phosphorylation ([19]; K908E/C817A-JAK1-expressing 22Rv1 cells): not observed | effect on IFNγ-stimulated STAT1 phosphorylation ([19]; WT-JAK1 transfected 22Rv1 cells, 1 μM, 2 h): Neither VVD-118313 nor the TYK2 inhibitor BMS-986165 altered | competition of probe 6 labeling of WT-JAK1 [20]: blocked in a concentration-dependent manner
